# Reference: paper PMC4516224 (Pharmaceutical research, 2008)
# Key:
# [1] = rabbit; in the absence of an inhibitor
# rPCEC [2] = test: Cell proliferation assay; assay type: cell-based, rabbit; conditions: steroid 500 μM with erythromycin, 12 h, data not shown
# rPCEC [3] = test: Cellular accumulation of [14C] erythromycin in rPCEC; assay type: cell-based, rabbit
# P-gp = P-gp (Homo sapiens, UniProt P08183); test: Bi-directional transport across MDCK-MDR1 cell monolayers; assay type: in vitro ADME; conditions: MDCK-MDR1, pH 7.4
# MRP2 = MRP2 (Homo sapiens, UniProt Q92887); test: Bi-directional transport across MDCK-MRP2 cell monolayers; assay type: in vitro ADME; conditions: pH 7.4
# Sequence of MRP2 (Q92887 whole entry): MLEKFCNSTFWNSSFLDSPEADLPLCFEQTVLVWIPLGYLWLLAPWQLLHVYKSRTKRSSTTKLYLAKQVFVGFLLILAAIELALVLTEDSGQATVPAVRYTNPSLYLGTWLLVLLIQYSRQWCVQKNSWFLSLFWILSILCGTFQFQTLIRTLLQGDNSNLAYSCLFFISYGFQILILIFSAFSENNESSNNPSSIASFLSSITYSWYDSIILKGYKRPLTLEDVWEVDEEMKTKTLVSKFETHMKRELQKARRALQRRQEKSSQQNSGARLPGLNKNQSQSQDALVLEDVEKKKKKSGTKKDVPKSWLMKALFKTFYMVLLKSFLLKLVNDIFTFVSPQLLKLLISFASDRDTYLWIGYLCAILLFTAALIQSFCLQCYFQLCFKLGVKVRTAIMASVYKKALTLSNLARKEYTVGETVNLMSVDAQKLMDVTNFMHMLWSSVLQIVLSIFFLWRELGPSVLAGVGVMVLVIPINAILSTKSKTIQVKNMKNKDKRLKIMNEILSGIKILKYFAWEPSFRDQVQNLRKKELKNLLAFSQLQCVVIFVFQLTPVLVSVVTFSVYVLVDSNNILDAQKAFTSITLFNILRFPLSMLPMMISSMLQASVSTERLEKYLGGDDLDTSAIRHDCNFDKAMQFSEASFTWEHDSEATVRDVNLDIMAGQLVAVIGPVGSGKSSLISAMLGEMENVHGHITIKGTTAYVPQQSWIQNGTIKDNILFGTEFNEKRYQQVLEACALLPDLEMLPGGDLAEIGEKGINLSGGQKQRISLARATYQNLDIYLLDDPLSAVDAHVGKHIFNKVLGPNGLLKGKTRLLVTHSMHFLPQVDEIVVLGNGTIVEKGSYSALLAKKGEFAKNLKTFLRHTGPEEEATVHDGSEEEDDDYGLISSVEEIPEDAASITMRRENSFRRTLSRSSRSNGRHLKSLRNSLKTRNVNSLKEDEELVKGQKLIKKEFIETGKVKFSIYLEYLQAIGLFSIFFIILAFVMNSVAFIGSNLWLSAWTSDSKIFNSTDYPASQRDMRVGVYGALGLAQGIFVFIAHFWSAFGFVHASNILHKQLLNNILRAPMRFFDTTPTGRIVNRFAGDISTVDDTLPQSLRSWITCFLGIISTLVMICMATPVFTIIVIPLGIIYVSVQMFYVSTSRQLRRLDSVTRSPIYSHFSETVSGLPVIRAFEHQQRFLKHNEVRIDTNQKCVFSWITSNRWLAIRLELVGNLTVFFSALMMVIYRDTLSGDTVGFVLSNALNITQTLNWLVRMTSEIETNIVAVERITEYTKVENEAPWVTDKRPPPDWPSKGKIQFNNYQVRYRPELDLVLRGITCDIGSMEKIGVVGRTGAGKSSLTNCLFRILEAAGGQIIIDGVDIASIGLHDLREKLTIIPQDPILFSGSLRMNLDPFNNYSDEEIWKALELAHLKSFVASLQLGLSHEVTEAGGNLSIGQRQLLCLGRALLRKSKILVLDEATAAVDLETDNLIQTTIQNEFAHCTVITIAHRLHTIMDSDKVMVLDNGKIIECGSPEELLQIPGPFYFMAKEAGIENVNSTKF
# Sequence of P-gp (P08183 whole entry): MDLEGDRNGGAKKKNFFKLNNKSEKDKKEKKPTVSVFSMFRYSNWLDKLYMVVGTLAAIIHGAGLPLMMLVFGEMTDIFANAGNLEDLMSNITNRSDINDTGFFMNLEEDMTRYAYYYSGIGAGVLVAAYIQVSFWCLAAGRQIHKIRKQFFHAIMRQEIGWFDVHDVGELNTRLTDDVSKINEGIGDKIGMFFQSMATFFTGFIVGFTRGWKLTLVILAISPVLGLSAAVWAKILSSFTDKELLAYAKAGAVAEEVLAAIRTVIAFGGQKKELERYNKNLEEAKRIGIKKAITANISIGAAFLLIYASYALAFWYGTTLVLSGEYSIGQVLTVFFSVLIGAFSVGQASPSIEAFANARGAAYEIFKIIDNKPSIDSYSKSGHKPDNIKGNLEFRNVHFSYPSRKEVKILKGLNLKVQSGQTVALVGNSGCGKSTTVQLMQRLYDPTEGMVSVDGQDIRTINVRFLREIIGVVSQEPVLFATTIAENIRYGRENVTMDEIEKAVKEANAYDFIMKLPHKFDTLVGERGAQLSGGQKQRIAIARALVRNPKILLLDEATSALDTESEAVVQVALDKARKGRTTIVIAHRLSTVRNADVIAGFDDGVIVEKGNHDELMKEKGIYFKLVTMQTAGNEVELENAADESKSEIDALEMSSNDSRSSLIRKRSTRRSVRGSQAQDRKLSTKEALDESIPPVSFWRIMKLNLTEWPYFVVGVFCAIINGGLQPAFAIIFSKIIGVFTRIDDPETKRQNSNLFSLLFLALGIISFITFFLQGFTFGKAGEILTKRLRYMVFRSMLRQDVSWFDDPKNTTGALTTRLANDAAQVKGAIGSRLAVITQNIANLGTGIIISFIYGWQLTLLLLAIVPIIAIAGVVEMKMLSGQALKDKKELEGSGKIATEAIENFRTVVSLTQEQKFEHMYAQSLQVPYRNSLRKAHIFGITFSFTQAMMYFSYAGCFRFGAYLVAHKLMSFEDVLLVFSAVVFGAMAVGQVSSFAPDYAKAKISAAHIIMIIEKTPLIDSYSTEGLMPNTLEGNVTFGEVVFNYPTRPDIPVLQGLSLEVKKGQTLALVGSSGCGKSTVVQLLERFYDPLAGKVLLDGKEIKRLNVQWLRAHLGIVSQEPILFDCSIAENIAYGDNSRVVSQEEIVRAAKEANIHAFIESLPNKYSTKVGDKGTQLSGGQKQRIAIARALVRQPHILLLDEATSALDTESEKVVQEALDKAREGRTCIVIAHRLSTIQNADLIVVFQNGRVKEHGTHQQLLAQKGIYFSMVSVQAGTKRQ
compound,measurement,setting,value
"CC[C@H]1OC(=O)[C@H](C)[C@@H](O[C@H]2C[C@@](C)(OC)[C@@H](O)[C@H](C)O2)[C@H](C)[C@@H](O[C@@H]2O[C@H](C)C[C@H](N(C)C)[C@H]2O)[C@](C)(O)C[C@@H](C)C(=O)[C@H](C)[C@@H](O)[C@]1(C)O [Ery, erythromycin]",Corneal absorption rate constant (ka) of erythromycin,[1],4.54±0.62×10^−5 min^−1
"C[C@H]1C[C@@H]2[C@H]([C@@H](O)C[C@@]3(C)[C@H]2CC[C@]3(O)C(=O)CO)[C@@]2(C)C=CC(=O)C=C12 [MPL, 6α-methyl prednisolone]",Cellular toxicity (percentage of viable cells vs control),rPCEC [2],not toxic
same,"Cellular accumulation of [^14C] erythromycin increased by, relative to control","rPCEC [3]; [14C] erythromycin 0.25 μCi/ml, 15 min, steroid 500 μM",375%
same,Inhibition of erythromycin efflux,rPCEC [3]; steroid 500 μM,complete inhibition
"C[C@]12C=CC(=O)C=C1CC[C@@H]1[C@@H]2C(=O)C[C@@]2(C)[C@H]1CC[C@]2(O)C(=O)CO [PS, prednisone]","Papp A→B at 3.5 h, 10 μM",P-gp,6.97 ± 0.21 ×10⁻⁶ cm/s
same,"Papp B→A at 3.5 h, 10 μM",P-gp,17.7 ± 0.47 ×10⁻⁶ cm/s
same,Cellular toxicity (percentage of viable cells vs control),rPCEC [2],not toxic
same,"Papp A→B at 3.5 h, 10 μM",MRP2,6.04 ± 0.15 ×10⁻⁶ cm/s
same,"Papp B→A at 3.5 h, 10 μM",MRP2,17.8 ± 0.22 ×10⁻⁶ cm/s
same,Inhibition of erythromycin efflux,rPCEC [3]; steroid 500 μM,~80%
CN(C)C(=O)CCSC(SCCC(=O)O)c1cccc(/C=C/c2ccc3ccc(Cl)cc3n2)c1 (stereo not shown) [MK571],"Cellular accumulation of [^14C] erythromycin in the presence of specific inhibitor, relative to control","rPCEC [3]; [14C] erythromycin 0.25 μCi/ml, 15 min, GF120918 2 μM, MK571 50 μM",310%
"C[C@]12C=CC(=O)C=C1CC[C@@H]1[C@@H]2[C@@H](O)C[C@@]2(C)[C@H]1CC[C@]2(O)C(=O)CO [PL, prednisolone]",Cellular toxicity (percentage of viable cells vs control),rPCEC [2],not toxic
same,Inhibition of erythromycin efflux,rPCEC [3]; steroid 500 μM,~80%
